Converted amounts (≈) assume the structure as drawn.
Experiments:
Vero [1] = assay: Compound was evaluated for the virus rating (VR) in test 2 against Herpes simplex virus type 1 (HSV-1) in vero cells.; assay type: functional, Chlorocebus sabaeus
Vero [2] = assay: Compound was evaluated for the virus rating (VR) in test 1 against Herpes simplex virus type 1 (HSV-1) in vero cells.; assay type: functional, Chlorocebus sabaeus
Vero [3] = assay: Minimum inhibitory concentration was determined for inhibition of cytopathogenic effects produced by strain 377 (TK+) Herpes simplex virus type 1 (HSV-1) in vero cells.; assay type: functional, cell-based; conditions: Chlorocebus sabaeus
Vero [4] = assay: Minimum inhibitory concentration was determined for inhibition of cytopathogenic effects produced by strain MS Herpes simplex virus type 2 (HSV-2) in vero cells.; assay type: functional, cell-based; conditions: Chlorocebus sabaeus
Oryctolagus cuniculus [5] = organism: Oryctolagus cuniculus; assay: Minimum inhibitory concentration against strain MS Herpes simplex virus type 2 (HSV-2) in rabbit kidney cells; assay type: functional
Oryctolagus cuniculus [6] = organism: Oryctolagus cuniculus; assay: Minimum inhibitory concentration against strain 377 (TK+) Herpes simplex virus type 1 (HSV-1) in rabbit kidney cells.; assay type: functional
Oryctolagus cuniculus [7] = organism: Oryctolagus cuniculus; assay: Compound was evaluated for the virus rating (VR) against Herpes simplex virus type 2 (HSV-2) in rabbit kidney cells; assay type: functional
Oryctolagus cuniculus [8] = organism: Oryctolagus cuniculus; assay: Compound was evaluated for the virus rating (VR) against Herpes simplex virus type 1 (HSV-1) in rabbit kidney cells.; assay type: functional
[9] = Oryctolagus cuniculus, read-out: MIC50

SMILES: Nc1nc2c(ncn2[C@H]2C[C@@H](CO)[C@H](O)C2)c(=O)[nH]1
- VR (Vero [1]): 1.1
- VR (Vero [2]): 0.8

SMILES: Nc1nc(N)c2ncn(C3CC(O)C(CO)C3)c2n1 (configuration not stated)
- MIC50 (Vero [3]): Minimum inhibitory concentration was determined for inhibition of cytopathogenic effects produced by strain MS Herpes simplex virus type 2 (HSV-2) in vero cells
- MIC50 (Vero [4]): Minimum inhibitory concentration was determined for inhibition of cytopathogenic effects produced by strain MS Herpes simplex virus type 2 (HSV-2) in vero cells

SMILES: Nc1nc(O)c2ncn([C@@H]3C[C@H](CO)[C@@H](O)C3)c2n1 (stereo in doubt; 4b)
- MIC50 (Oryctolagus cuniculus [5]; [9]): 0.7 µg/mL (≈ 2.64 µM)
- MIC50 (Oryctolagus cuniculus [6]; [9]): 0.3 µg/mL (≈ 1.13 µM)
- VR (Oryctolagus cuniculus [7]): 3.8
- VR (Oryctolagus cuniculus [8]): 5.9

SMILES: Nc1nc(O)c2ncn([C@@H]3C[C@H](CO)[C@@H](O)C3)c2n1 (stereo in doubt; 4b+5b)
- MIC50 (Oryctolagus cuniculus [5]): 0.8 µg/mL (≈ 3.02 µM)
- MIC50 (Oryctolagus cuniculus [6]): 0.3 µg/mL (≈ 1.13 µM)
- VR (Oryctolagus cuniculus [7]): 3.7
- VR (Oryctolagus cuniculus [8]): 7
